This experiment concerns skin. Particulars: for Rating: 5% sample applied to skin, scale of 1 to 5, 1 being poor and 5 being best. The source says:
The effect of moisturization can be measured by the appearance of the skin when treated. Untreated skin that is in need of moisturization is rough, scaly and dry looking under the dissection microscope. The application of the moisturization solution to the skin and its effect upon minimizing roughness, scaling and dry appearance is a good measure of moisturization. We performed such an evaluation and rated the performance of a scale of 1 to 5.1 being poor and 5 being best.

On to `C[N+](C)(C)CCO` [Choline], for which the Rating was found to be 4.
On to `C[N+](C)(CCO)CC(O)CO.[Cl-]` (stereo not shown) [Example 3], for which the Rating came to 5. The “moisturization effect in words” value (applied to rough dry skin) is “very effective moisturization agent”.
Molecule `OCC(O)CO` [Glycerin] displayed a Rating of 2.

The values are drawn from patent US6869977B1, “Skin moisturization compound” (Colonial Chemical Inc., priority 2004, dated 2005).
